The SangsterLogP compilation

experiment: method code SF-AS, from PMID: 6686445; conditions: pH 7.4

First: O=C1CN=C(c2ccccc2C(F)(F)F)c2cc([N+](=O)[O-])ccc2N1
Second: O=C1CN=C(c2ccccc2F)c2cc([N+](=O)[O-])ccc2N1
The logD of the first is higher: 2.51 for the first, 2.15 for the second.

Going from `CN1C(=O)CN=C(c2ccccc2F)c2cc(I)ccc21` to `CN1C(=O)CN=C(c2ccccc2F)c2cc(Cl)ccc21`, the logD falls from 3.14 to 2.75.

`O=C1CN=C(c2ccccc2)c2ccccc2N1` and `O=C1CN=C(c2ccccc2)c2cc(F)ccc2N1` are within 0.2 log units of each other in logD: 2.18 for the first, 2.32 for the second.

Going from `O=C1CN=C(c2c(F)cccc2F)c2cc(Cl)ccc2N1` to `O=C1CN=C(c2c(F)cccc2F)c2ccc(Cl)cc2N1`, the logD rises from 2.68 to 2.88.

Going from `CN1C(=O)CN=C(c2ccccc2)c2cc(N)ccc21` to `CCN1C(=O)CN=C(c2ccccc2)c2cc(N)ccc21`, the logD rises from 1.46 to 1.81.

Compared with `COc1cccc(C2=NCC(=O)Nc3ccc(Cl)cc32)c1`, `COc1ccccc1C1=NCC(=O)Nc2ccc(Cl)cc21` is lower in logD: 3.14 for the first, 2.63 for the second.

`O=C1CN=C(c2ccccc2Br)c2cc(Cl)ccc2N1` and `O=C1CN=C(c2ccccc2Cl)c2cc(Cl)ccc2N1` are within 0.2 log units of each other in logD: 3.17 for the first, 3.15 for the second.

`CN1C(=O)CN=C(c2ccccc2Cl)c2cc(Cl)ccc21` and `Cc1ccccc1C1=NCC(=O)N(C)c2ccc(Cl)cc21` are within 0.2 log units of each other in logD: 3.12 for the first, 3.03 for the second.

Compared with `N#Cc1ccc2c(c1)C(c1ccccc1)=NCC(=O)N2`, `Cc1ccc2c(c1)C(c1ccccc1)=NCC(=O)N2` is higher in logD: 1.82 for the first, 2.62 for the second.

Going from `CSCN1C(=O)CN=C(c2ccccc2)c2cc(N)ccc21` to `CSCN1C(=O)CN=C(c2ccccc2)c2cc(Cl)ccc21`, the logD rises from 1.92 to 3.32.

`CN1C(=O)CN=C(c2c(Cl)cccc2Cl)c2cc(Cl)ccc21` and `COc1ccc(C2=NCC(=O)N(C)c3ccc(Cl)cc32)cc1` are within 0.2 log units of each other in logD: 3.04 for the first, 3.15 for the second.

`O=C1CN=C(c2cccc(C(F)(F)F)c2)c2ccccc2N1` and `O=C1CN=C(c2ccccc2)c2cc(C(F)(F)F)ccc2N1` are within 0.2 log units of each other in logD: 3.19 for the first, 3.1 for the second.

Compared with `O=C1CN=C(c2ccccc2F)c2cc(Cl)ccc2N1CC(O)CO` (stereo not given), `COCN1C(=O)CN=C(c2ccccc2F)c2cc(N)ccc21` is lower in logD: 1.51 for the first, 1.31 for the second.

Compared with `CSc1ccc2c(c1)C(c1ccccc1)=NCC(=O)N2C`, `CCN1C(=O)CN=C(c2ccccc2)c2cc(Cl)ccc21` is higher in logD: 2.95 for the first, 3.21 for the second.

`O=C1CN=C(c2ccccc2F)c2ccccc2N1` and `O=C1CN=C(c2ccccc2C(F)(F)F)c2ccccc2N1` are within 0.2 log units of each other in logD: 2.38 for the first, 2.47 for the second.

First: CCc1ccc2c(c1)C(c1ccccc1F)=NCC(=O)N2
Second: O=C1CN=C(c2ccccc2F)c2cc(Cl)ccc2N1
The logD of the first is higher: 2.92 for the first, 2.7 for the second.

First: CC(=O)c1ccc2c(c1)C(c1ccccc1F)=NCC(=O)N2
Second: Cc1ccccc1C1=NCC(=O)Nc2ccc(Cl)cc21
The logD of the first is lower: 1.75 for the first, 3.12 for the second.

Compared with `O=C1CN=C(c2ccccc2F)c2cc(Cl)c(Cl)cc2N1`, `CSc1ccccc1C1=NCC(=O)Nc2ccc(Cl)cc21` is lower in logD: 3.63 for the first, 2.99 for the second.

Going from `CN1C(=O)CN=C(c2ccc(Cl)cc2)c2cc(F)ccc21` to `O=C1CN=C(c2ccc(F)cc2)c2cc(Cl)ccc2N1`, the logD falls from 3.1 to 2.9.

First: COc1ccc2c(c1)C(c1ccccc1)=NCC(=O)N2
Second: O=C1CN=C(c2ccc(C(F)(F)F)cc2)c2ccccc2N1
The logD of the first is lower: 2.24 for the first, 3.34 for the second.

First: COCN1C(=O)C(O)N=C(c2ccccc2)c2cc(N)ccc21 (stereo not given)
Second: COCN1C(=O)CN=C(c2ccccc2)c2cc(N)ccc21
The logD of the first is lower: 0.75 for the first, 1.32 for the second.

Compared with `COCN1C(=O)CN=C(c2ccccc2Cl)c2cc(Cl)ccc21`, `COCN1C(=O)CN=C(c2ccccc2)c2cc(Cl)ccc21` is lower in logD: 3.23 for the first, 2.86 for the second.

Compared with `O=C1CN=C(c2ccccc2)c2cc([N+](=O)[O-])ccc2N1CC(O)CO` (stereo not given), `COCN1C(=O)CN=C(c2ccccc2)c2cc([N+](=O)[O-])ccc21` is higher in logD: 0.96 for the first, 2.05 for the second.

First: O=C1CN=C(c2ccccc2[N+](=O)[O-])c2cc([N+](=O)[O-])ccc2N1
Second: C[C@@H]1N=C(c2ccccc2Cl)c2cc([N+](=O)[O-])ccc2NC1=O
The logD of the first is lower: 1.61 for the first, 2.72 for the second.

Going from `CC1N=C(c2ccccc2Cl)c2cc(Cl)ccc2N(C)C1=O` (stereo not given) to `CN1C(=O)CN=C(c2ccccc2F)c2cc(N)ccc21`, the logD falls from 3.4 to 1.3.
